In PMC4109310, “An atomic-resolution view of neofunctionalization in the evolution of apicomplexan lactate dehydrogenases” (eLife, 2014):

Assays:
[1] = tested on: AncMDH2; assay type: biochemical, synthetic construct; settings: 200 uM NADH, 50 mM Tris pH 7.5, 50 mM KCl, 25 C
[2] = molecular target: T1, RbMDH (Rickettsia bellii, UniProt Q1RIT9); assay type: biochemical
T1 construct: gene mdh
T1 sequence (Q1RIT9 whole entry, looked up): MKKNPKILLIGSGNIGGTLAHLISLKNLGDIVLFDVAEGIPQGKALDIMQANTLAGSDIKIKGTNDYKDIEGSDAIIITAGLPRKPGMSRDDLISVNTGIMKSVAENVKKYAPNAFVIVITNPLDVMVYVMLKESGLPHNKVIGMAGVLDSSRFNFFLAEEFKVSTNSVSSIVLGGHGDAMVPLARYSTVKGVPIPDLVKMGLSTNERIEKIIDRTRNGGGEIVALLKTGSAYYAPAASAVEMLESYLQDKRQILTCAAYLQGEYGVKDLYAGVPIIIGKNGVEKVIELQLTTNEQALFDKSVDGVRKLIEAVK

`CC(=O)C(=O)O` [pyruvate] showed a Km [1] of 20 mM.

For `O=C(O)CC(=O)C(=O)O` [oxaloacetate], the KM [2] was “RbMDH is a representative α-proteobacterial MDH from Rickettsia bellii”.
